Melting point and IC50 data for 19 compounds are collected here from patent US6534525B1, “2-substituted piperidine analogs and their use as subtype-selective NMDA receptor antagonists” (Warner-Lambert & Company, priority 1995, dated 2003).

Counter-ions that a name gives are not always drawn.

For series [1], the target named is NMDA receptor subunits 1A/2B (NR1A+NR2B) (Rattus norvegicus, UniProt P35439+Q00960). Kind of series: Electrophysiological assay at cloned NMDA receptor subunits expressed in Xenopus oocytes, 1A/2B. Format: cell-based. As to conditions: cloned rat NMDA receptor in Xenopus oocytes, two-electrode voltage clamp, currents activated by glutamate and glycine; read-out: Subunits (IC50(μM)) 1A/2B. The procedure: (§1) Electrophysiological Assays at NMDA Receptor Subunits
(§2) The clones were transformed into appropriate host bacteria and plasmid preparations were made with conventional DNA purification techniques. A sample of each clone was linearized by restriction enzyme digestion and cRNA was synthesized with T3 RNA polymerase. The cRNA was diluted to 400 ng/μl and stored in 1 μl aliquots at −80° C. until injection.
(§3) The Xenopus oocyte Expression System
(§4) Follicle-enclosed oocytes were micro-injected with 1:1 mixtures of cRNA:NR1A+NR2A, 2B, 2C or 2D; injecting ˜2,5, or 20 ng of RNA encoding each receptor subunit. NR1A encoding cRNA was injected alone at ˜20 ng. Oocytes were stored in Barth's medium containing (in mM):NaCl, 88; KCl, 1; CaCl2, 0.41; Ca(NO3)2, 0.33; MgSO4, 0.82 NaHCO3, 2.4; HEPES 5, pH 7.4, with 0.1 mg/ml gentamicin sulphate. While oocytes were still surrounded by enveloping ovarian tissues the Barth's medium was supplemented with 0.1% bovine serum.
(§5) Electrical recordings were made using a conventional two-electrode voltage clamp (Dagan TEV-200) over periods ranging between 3-14 days following injection. […] Drugs were applied by bath perfusion. Using oocytes expressing different subunit combinations of NMDA receptor, NMDA currents were activated by co-application of glutamate and glycine. Inhibitory potency of the novel antagonists was assessed on responses elicited by fixed concentrations of glutamate and glycine, by measuring reductions in current induced by progressively increasing concentrations of antagonists.
(§6) Concentration-inhibition curves were fit with equation 1.
(§7) in which Icontrol is the current evoked by agonists alone, pIC50=−log IC50, IC50 is the concentration of antagonist that produces half maximal inhibition, and n is the slope factor. […] For incomplete curves analysis by fitting was unreliable and IC50 values were calculated by simple regression over linear portions of the curves (Origin: Microcal Software).
In general terms: Two-electrode voltage clamp is typically applied to oocytes expressing channels or transporters.

Series [2] has as its target NMDA receptor subunits 1A/2C (NR1A+NR2C) (Rattus norvegicus, UniProt P35439+Q00961). Kind of series: Electrophysiological assay at cloned NMDA receptor subunits expressed in Xenopus oocytes, 1A/2C. In kind it is cell-based. As to conditions: cloned rat NMDA receptor in Xenopus oocytes, two-electrode voltage clamp, currents activated by glutamate and glycine; read-out: Subunits (IC50(μM)) 1A/2C. The procedure:
as §1, §2, §3, §4, §5, §6, §7

Series [3] has as its target NMDA receptor subunits 1A/2A (NR1A+NR2A) (Rattus norvegicus, UniProt P35439+Q00959). Kind of series: Electrophysiological assay at cloned NMDA receptor subunits expressed in Xenopus oocytes, 1A/2A. Format: cell-based. As to conditions: cloned rat NMDA receptor in Xenopus oocytes, two-electrode voltage clamp, currents activated by glutamate and glycine; read-out: Subunits (IC50(μM)) 1A/2A. The procedure:
as §1, §2, §3, §4, §5, §6, §7

As a reminder, the melting point is the temperature of the solid-liquid transition.

Chain of NMDA receptor subunits 1A/2A (NR1A+NR2A) (Q00959 23-1464, other chains not shown): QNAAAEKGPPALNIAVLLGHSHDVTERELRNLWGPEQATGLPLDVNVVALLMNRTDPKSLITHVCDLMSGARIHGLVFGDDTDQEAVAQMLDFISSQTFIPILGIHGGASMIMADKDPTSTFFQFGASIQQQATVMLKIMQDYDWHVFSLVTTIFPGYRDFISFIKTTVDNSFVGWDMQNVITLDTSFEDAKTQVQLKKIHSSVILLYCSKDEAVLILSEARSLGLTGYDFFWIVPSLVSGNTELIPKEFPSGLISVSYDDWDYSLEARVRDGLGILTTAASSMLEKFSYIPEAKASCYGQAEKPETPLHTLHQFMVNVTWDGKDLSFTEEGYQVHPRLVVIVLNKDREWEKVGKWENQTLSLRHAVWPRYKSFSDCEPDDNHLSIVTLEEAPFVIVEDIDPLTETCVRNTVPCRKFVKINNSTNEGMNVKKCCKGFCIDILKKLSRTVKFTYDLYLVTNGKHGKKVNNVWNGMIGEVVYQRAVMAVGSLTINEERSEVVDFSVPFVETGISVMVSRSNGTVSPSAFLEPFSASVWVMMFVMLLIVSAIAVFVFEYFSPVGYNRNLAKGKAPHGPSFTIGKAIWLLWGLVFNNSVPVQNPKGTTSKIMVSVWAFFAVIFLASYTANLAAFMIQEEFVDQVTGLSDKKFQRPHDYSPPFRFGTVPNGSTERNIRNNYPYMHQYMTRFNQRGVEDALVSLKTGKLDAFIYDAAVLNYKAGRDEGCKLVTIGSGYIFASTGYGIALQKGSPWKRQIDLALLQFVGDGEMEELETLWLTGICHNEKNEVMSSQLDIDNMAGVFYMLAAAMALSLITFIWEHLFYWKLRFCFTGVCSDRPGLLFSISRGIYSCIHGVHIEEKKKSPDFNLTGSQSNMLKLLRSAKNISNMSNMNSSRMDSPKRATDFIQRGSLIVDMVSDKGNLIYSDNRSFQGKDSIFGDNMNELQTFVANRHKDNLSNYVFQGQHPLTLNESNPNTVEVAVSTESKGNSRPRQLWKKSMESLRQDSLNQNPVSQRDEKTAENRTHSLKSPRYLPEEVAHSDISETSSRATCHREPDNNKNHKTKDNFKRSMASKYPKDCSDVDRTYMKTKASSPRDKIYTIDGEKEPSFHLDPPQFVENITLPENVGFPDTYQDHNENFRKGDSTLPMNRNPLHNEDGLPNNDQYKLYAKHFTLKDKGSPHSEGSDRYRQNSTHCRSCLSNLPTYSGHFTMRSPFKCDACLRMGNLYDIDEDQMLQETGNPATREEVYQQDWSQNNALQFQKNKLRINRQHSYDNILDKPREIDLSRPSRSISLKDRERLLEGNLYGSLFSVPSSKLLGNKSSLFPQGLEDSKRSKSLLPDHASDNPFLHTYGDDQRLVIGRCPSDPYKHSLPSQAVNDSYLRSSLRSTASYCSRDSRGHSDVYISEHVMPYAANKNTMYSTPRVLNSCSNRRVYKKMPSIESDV
Chain of NMDA receptor subunits 1A/2C (NR1A+NR2C) (Q00961 20-1237, other chains not shown): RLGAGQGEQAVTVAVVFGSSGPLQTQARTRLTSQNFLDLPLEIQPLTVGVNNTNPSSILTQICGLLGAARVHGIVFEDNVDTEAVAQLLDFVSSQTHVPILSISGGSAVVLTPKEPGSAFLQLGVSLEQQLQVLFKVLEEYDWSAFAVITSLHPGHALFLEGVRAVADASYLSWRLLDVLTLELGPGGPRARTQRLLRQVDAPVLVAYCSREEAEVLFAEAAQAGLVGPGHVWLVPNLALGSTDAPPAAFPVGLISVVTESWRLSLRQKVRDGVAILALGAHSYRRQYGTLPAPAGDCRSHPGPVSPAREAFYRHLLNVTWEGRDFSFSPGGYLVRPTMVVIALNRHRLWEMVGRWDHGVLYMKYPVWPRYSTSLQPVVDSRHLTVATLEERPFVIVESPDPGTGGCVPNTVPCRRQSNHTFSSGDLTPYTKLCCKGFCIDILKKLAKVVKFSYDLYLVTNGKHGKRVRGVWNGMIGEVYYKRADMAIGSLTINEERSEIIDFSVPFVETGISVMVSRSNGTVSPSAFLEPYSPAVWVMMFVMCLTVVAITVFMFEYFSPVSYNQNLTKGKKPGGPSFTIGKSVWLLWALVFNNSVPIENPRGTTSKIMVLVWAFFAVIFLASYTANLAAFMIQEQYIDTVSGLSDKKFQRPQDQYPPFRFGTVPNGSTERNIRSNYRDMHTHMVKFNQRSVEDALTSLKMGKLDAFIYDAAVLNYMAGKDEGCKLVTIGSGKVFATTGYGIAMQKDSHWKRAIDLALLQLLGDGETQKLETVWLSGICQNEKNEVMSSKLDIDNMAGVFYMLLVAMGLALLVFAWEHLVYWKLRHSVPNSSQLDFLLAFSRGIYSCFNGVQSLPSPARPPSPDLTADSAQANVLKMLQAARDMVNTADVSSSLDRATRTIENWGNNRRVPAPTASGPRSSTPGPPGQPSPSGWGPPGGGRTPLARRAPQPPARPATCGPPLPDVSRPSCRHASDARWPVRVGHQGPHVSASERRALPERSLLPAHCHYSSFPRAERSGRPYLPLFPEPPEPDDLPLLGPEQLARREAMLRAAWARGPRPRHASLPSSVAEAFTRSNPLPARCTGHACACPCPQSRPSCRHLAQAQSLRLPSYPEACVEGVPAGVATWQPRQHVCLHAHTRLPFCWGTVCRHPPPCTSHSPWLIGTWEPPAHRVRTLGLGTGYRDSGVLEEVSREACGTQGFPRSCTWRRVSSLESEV
Chain of NMDA receptor subunits 1A/2B (NR1A+NR2B) (Q00960 27-1482, other chains not shown): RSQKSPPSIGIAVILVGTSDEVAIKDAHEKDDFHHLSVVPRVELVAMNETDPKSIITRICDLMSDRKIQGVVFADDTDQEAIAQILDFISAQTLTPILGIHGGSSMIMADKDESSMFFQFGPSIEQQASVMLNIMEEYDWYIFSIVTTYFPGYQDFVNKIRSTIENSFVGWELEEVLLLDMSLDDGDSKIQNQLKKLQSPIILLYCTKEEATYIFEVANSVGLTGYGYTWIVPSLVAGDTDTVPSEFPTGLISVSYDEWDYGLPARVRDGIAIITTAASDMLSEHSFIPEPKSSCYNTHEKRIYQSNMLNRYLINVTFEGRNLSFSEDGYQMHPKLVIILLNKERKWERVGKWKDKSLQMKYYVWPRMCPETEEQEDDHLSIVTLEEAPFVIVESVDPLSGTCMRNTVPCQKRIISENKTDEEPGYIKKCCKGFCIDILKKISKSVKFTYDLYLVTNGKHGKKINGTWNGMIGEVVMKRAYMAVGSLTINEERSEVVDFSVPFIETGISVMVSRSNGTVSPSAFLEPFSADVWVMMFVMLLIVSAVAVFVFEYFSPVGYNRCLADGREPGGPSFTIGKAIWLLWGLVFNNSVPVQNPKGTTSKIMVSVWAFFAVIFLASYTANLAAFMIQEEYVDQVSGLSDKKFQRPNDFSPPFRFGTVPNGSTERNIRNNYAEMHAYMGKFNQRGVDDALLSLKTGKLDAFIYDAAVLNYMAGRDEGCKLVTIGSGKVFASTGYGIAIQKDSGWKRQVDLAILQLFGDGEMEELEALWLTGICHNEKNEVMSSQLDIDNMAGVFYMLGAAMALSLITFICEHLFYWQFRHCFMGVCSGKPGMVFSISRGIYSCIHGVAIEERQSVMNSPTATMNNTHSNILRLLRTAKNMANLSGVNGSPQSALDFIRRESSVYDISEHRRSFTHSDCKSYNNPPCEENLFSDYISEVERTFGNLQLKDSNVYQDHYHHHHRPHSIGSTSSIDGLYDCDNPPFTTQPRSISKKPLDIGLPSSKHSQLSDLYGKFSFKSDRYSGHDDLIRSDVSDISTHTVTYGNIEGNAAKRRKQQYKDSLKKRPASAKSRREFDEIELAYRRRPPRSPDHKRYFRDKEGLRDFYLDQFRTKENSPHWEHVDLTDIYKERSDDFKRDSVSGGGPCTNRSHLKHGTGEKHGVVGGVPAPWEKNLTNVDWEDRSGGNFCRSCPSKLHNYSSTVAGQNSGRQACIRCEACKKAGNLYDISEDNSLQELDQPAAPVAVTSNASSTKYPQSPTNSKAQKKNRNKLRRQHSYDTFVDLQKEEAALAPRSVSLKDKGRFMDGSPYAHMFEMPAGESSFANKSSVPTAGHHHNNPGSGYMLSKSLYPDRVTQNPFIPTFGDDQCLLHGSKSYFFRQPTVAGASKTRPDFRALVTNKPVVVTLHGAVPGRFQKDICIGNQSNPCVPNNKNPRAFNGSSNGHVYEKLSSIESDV

Consider `Br.FC(F)(F)c1ccccc1OCCCCN1CCCCC1Cc1ccccc1` (stereo not drawn), for which the melting point fell in the range of 136 to 140 °C.

Compound `Br.FC(F)(F)c1cccc(OCCCCN2CCCCC2Cc2ccccc2)c1` (stereo not drawn) had a melting point of 143.5 to 144.5 °C.

Compound `Br.FC(F)(F)c1ccc(OCCCCN2CCCCC2Cc2ccccc2)cc1` (stereo not drawn) yielded a melting point of 130 to 134 °C.

`Br.Fc1cccc(OCCCCN2CCCCC2Cc2ccccc2)c1` (stereo not drawn): the melting point lay in the range of 119 to 123 °C.

As to `Fc1ccc(OCC[n+]2ccccc2Cc2ccc(Cl)cc2)cc1.[Br-]`, the melting point lay in the range of 179 to 180 °C.

Turning to `Br.c1ccc(CCN2CCCCC2Cc2ccccc2)cc1` (stereo not drawn), the melting point lay within 162.5 to 164.5 °C.

For `Br.c1ccc(CCCCN2CCCCC2Cc2ccccc2)cc1` (stereo not drawn), the melting point fell in the range of 133 to 135 °C.

`Br.c1ccc(CC2CCCCN2CCCCOc2ccccc2)cc1` (stereo not drawn) returned a melting point of 100 to 103 °C.

Take `c1ccc(CC2CCCCN2CCCCCOc2ccccc2)cc1` (stereo not drawn) (as salt: hydrobromid) [Example 20, 2-Benzyl-1-(5-phenoxypentyl)piperidine hydrobromide]: the melting point lay in the range of 137.5 to 139.5 °C.

Consider `O=[N+]([O-])c1ccc(OCCN2CCCCC2Cc2ccccc2)cc1` (stereo not drawn) (as salt: hydrobromid) [Example 21, 2-Benzyl-1-(2-(4-nitrophenoxy)ethyl)-piperidine hydrobromide], for which the melting point is 180 to 182 °C.

On to `Nc1ccc(OCCN2CCCCC2Cc2ccccc2)cc1` (stereo not drawn) (as salt: hydrobromid) [Example 22, 1-(2-(4-Aminophenoxy)ethyl)-2-benzylpiperidine dihydrobromide], for which the melting point was 130 °C.

In the case of `c1ccc(CC2CCCCN2Cc2ccccc2)cc1` (stereo not drawn) [Example 2, 1,2-Dibenzylpiperidine, hydrobromide], the values for the IC50 in series [1], in series [2] and in series [3] were 19 µM, 33 µM and 15 µM, respectively.

Turning to `Br.c1ccc(CCCN2CCCCC2Cc2ccccc2)cc1` (stereo not drawn) [Example 4, 2-Benzyl-1-(3-phenylpropyl)piperidine, hydrobromide], the melting point was 155 to 157 °C. For the same compound, the IC50 in series [1] was determined as 15 µM. Besides, the IC50 in series [2] worked out at 125 µM. For the same compound, the IC50 in series [3] amounted to 8 µM.

For `c1ccc(CC2CCCCN2CCOc2ccccc2)cc1` (stereo not drawn) [Example 6, 2-Benzyl-1-(2-phenoxyethyl)piperidine], the IC50 in series [1] came to 25 µM; in series [2] it was 130 µM; in series [3] it was 17 µM.

Turning to `c1ccc(CC2CCCCN2CCCCCOc2ccccc2)cc1` (stereo not drawn) [Example 20, 2-Benzyl-1-(5-phenoxypentyl)piperidine hydrobromide], the values for the IC50 in series [1], in series [2] and in series [3] were 22 µM, 70 µM and 14 µM, respectively.

With `O=[N+]([O-])c1ccc(OCCN2CCCCC2Cc2ccccc2)cc1` (stereo not drawn) [Example 21, 2-Benzyl-1-(2-(4-nitrophenoxy)ethyl)-piperidine hydrobromide], the IC50 in series [1] turned out to be 35 µM; in series [2], 240 µM; in series [3], 60 µM.

As to `Nc1ccc(OCCN2CCCCC2Cc2ccccc2)cc1` (stereo not drawn) [Example 22, 1-(2-(4-Aminophenoxy)ethyl)-2-benzylpiperidine dihydrobromide], the IC50 was found to be 6 µM in series [1], 180 µM in series [2] and 80 µM in series [3].

For `Oc1ccc(OCCCCN2CCCCC2Cc2ccccc2)cc1` (stereo not drawn) [Example 28, 2-Benzyl-1-(4-(4-hydroxyphenoxy)butyl)piperidine hydrochloride], the figures for the IC50 in series [1], in series [2] and in series [3] were 10 µM, 110 µM and 15 µM, respectively.

With `O=c1[nH]c2ccc(OCCN3CCCCC3Cc3ccccc3)cc2[nH]1` (stereo not drawn) [Example 30, 2-Benzyl-1-(4-(2-oxobenzimidazol-5-oxy)ethyl)piperidine], the IC50 was found to be 5 µM in series [1], 33 µM in series [2] and 7.5 µM in series [3].
